Measurements as given in the OligoGym collection.
Several values for one entry are separate records, joined by “and”; a condition that tells them apart may be missing. Equal values may be shown once. After the bases stand the sugars from the 5' end (letter, count) and the backbone: PS all phosphorothioate, else s phosphorothioate and o phosphodiester by linkage. Methylation of C is not given here. k = constrained ethyl (cEt); d = 2'-deoxy (DNA)

The sequences below were run against MALAT1. Conditions: ASO, A431, 0.005 µM.

Compared with ATCCCCCCCAAGATTG (sugars k3 d10 k3, PS), ATCCCTAACATGCAAT (sugars k3 d10 k3, PS) is higher in target mRNA inhibition: 5% for the first, 23% for the second.

Going from ATCCTACCACTCCCAA (sugars k3 d10 k3, PS) to ATCCTCTACGCACAAC (sugars k3 d10 k3, PS), the target mRNA inhibition rises from 34% to 42%.

First: ATCCTGAATGGCTTCA (sugars k3 d10 k3, PS)
Second: ATCTAAAAGCATTGCC (sugars k3 d10 k3, PS)
The target mRNA inhibition of the first is lower: 0% for the first, 18% for the second.

Compared with ATCTCAACCTCCGTCA (sugars k3 d10 k3, PS), ATCTTAGTAACCTATT (sugars k3 d10 k3, PS) is lower in target mRNA inhibition: 34% for the first, 17% for the second.

Going from ATGCAATACTGCAGAT (sugars k3 d10 k3, PS) to ATGCACTAAAGATCAC (sugars k3 d10 k3, PS), the target mRNA inhibition rises from 1% to 34%.

Compared with ATGCATTCTAATAGCA (sugars k3 d10 k3, PS), ATGGACATCTCTTCCA (sugars k3 d10 k3, PS) is higher in target mRNA inhibition: -1% for the first, 30% for the second.

Going from ATGGATCATGCCCACA (sugars k3 d10 k3, PS) to ATTAAGAGCTGCTATA (sugars k3 d10 k3, PS), the target mRNA inhibition falls from 12% to -4%.

Compared with ATTACCTAAACCCACC (sugars k3 d10 k3, PS), ATTACTCTAATCACTG (sugars k3 d10 k3, PS) is higher in target mRNA inhibition: -10% for the first, 28% for the second.

Compared with ATTAGTAGTCAAAGCA (sugars k3 d10 k3, PS), ATTCATGAGTATAAGC (sugars k3 d10 k3, PS) is higher in target mRNA inhibition: 20% for the first, 29% for the second.

Compared with ATTCCCCAATGGAGGT (sugars k3 d10 k3, PS), ATTCGATCACCTTCCG (sugars k3 d10 k3, PS) is lower in target mRNA inhibition: 36% for the first, 19% for the second.

First: ATTCTAATAGCAGCGG (sugars k3 d10 k3, PS)
Second: ATTTAAGGCCTTCCAA (sugars k3 d10 k3, PS)
The target mRNA inhibition of the first is higher: 32% for the first, 30% for the second.

Compared with ATTTTAAACGGGTCAT (sugars k3 d10 k3, PS), ATTTTGTCCACTGGTG (sugars k3 d10 k3, PS) is higher in target mRNA inhibition: 7% for the first, 50% for the second.

First: CAAAGACCTCGACACC (sugars k3 d10 k3, PS)
Second: CAAAGATATTGTGCTG (sugars k3 d10 k3, PS)
The target mRNA inhibition of the first is higher: 18% for the first, -10% for the second.

First: CAAATCGCCATGGAAA (sugars k3 d10 k3, PS)
Second: CAAATTAATGCACTGG (sugars k3 d10 k3, PS)
The target mRNA inhibition of the first is lower: 14% for the first, 15% for the second.

Compared with CAACAATTTAGAGCTT (sugars k3 d10 k3, PS), CAACAGCACAGCGGTA (sugars k3 d10 k3, PS) is lower in target mRNA inhibition: 12% for the first, -5% for the second.

First: CAACATTTGGCCTACT (sugars k3 d10 k3, PS)
Second: CAACCCACCAAAGACC (sugars k3 d10 k3, PS)
The target mRNA inhibition of the first is higher: 17% for the first, 2% for the second.

Going from CAACTCGCATCACCGG (sugars k3 d10 k3, PS) to CAACTGGAAGCTCCTT (sugars k3 d10 k3, PS), the target mRNA inhibition rises from 9% to 23%.

Going from CAAGACCAAACTGCAG (sugars k3 d10 k3, PS) to CAAGGCAAATCGCCAT (sugars k3 d10 k3, PS), the target mRNA inhibition rises from -28% to 42%.

Compared with CAATCACAAATACGAC (sugars k3 d10 k3, PS), CAATCCCAACCGTAAC (sugars k3 d10 k3, PS) is lower in target mRNA inhibition: 18% for the first, 9% for the second.

Going from CAATCCTGAAATCCCC (sugars k3 d10 k3, PS) to CACACTGGCATGCTGG (sugars k3 d10 k3, PS), the target mRNA inhibition falls from 16% to 9%.

Compared with CACAGCTCGGGCGAGG (sugars k3 d10 k3, PS), CACCAATCCCAACCGT (sugars k3 d10 k3, PS) is lower in target mRNA inhibition: 25% for the first, 5% for the second.

Going from CACCCAAAAGCCCTCT (sugars k3 d10 k3, PS) to CACCCTCTAAGAGACA (sugars k3 d10 k3, PS), the target mRNA inhibition falls from 17% to 1%.

Going from CACCTGGGTCAGCTGT (sugars k3 d10 k3, PS) to CACGAACTGCTGCTTG (sugars k3 d10 k3, PS), the target mRNA inhibition rises from 25% to 55%.

Compared with CACGGATTTTTACCAA (sugars k3 d10 k3, PS), CACGGCCCGCACGGAA (sugars k3 d10 k3, PS) is lower in target mRNA inhibition: 19% for the first, -1% for the second.

Compared with CACTCCCAATTAATCT (sugars k3 d10 k3, PS), CACTCTGATCTGCGGC (sugars k3 d10 k3, PS) is lower in target mRNA inhibition: 8% for the first, -28% for the second.

First: CACTGCAAGGTCTCAT (sugars k3 d10 k3, PS)
Second: CACTTGATCCCAACTC (sugars k3 d10 k3, PS)
The target mRNA inhibition of the first is lower: 41% for the first, 44% for the second.

First: CACTTTAGAGGCTTTT (sugars k3 d10 k3, PS)
Second: CAGAAGCCCCTGCGCT (sugars k3 d10 k3, PS)
The target mRNA inhibition of the first is higher: 42% for the first, 3% for the second.

First: CAGAGTTTGAGTGGTT (sugars k3 d10 k3, PS)
Second: CAGCACAGCGGTACAC (sugars k3 d10 k3, PS)
The target mRNA inhibition of the first is higher: 16% for the first, 7% for the second.

Going from CAGCACATCATGCTAT (sugars k3 d10 k3, PS) to CAGCACGGGCTGTCTG (sugars k3 d10 k3, PS), the target mRNA inhibition falls from 15% to -33%.

Compared with CAGCAGTAGGGCTTCT (sugars k3 d10 k3, PS), CAGCCTATAAGGACAG (sugars k3 d10 k3, PS) is higher in target mRNA inhibition: -1% for the first, 22% for the second.

Compared with CAGGACTTGGCAGTCT (sugars k3 d10 k3, PS), CAGGAGTGCCAACCAC (sugars k3 d10 k3, PS) is lower in target mRNA inhibition: 14% for the first, -2% for the second.

Compared with CAGGCTATTACCTGAA (sugars k3 d10 k3, PS), CAGTACTGCATTTACT (sugars k3 d10 k3, PS) is higher in target mRNA inhibition: -14% for the first, 20% for the second.

First: CAGTAGGGCTTCTCAA (sugars k3 d10 k3, PS)
Second: CAGTAGTAAGAATCTC (sugars k3 d10 k3, PS)
The target mRNA inhibition of the first is lower: 10% for the first, 54% for the second.

Compared with CATAACTGATCTGACT (sugars k3 d10 k3, PS), CATATTGCCGACCTCA (sugars k3 d10 k3, PS) is higher in target mRNA inhibition: -5% for the first, 43% for the second.

Going from CATGAGTATAAGCCTG (sugars k3 d10 k3, PS) to CATGAGTTTATCTGCA (sugars k3 d10 k3, PS), the target mRNA inhibition falls from 50% to -6%.

Compared with CATGTGCCTGGAATTA (sugars k3 d10 k3, PS), CATTAAGTTGGTAATT (sugars k3 d10 k3, PS) is lower in target mRNA inhibition: 26% for the first, 12% for the second.

First: CATTTGGCCTACTCAA (sugars k3 d10 k3, PS)
Second: CCAAACAACTTTTGCA (sugars k3 d10 k3, PS)
The target mRNA inhibition of the first is lower: 34% for the first, 44% for the second.

Going from CCAACCACTCGCTTTC (sugars k3 d10 k3, PS) to CCAACTAATTGCCAAT (sugars k3 d10 k3, PS), the target mRNA inhibition rises from 26% to 40%.

Going from CCAACTTGGAAGTTGA (sugars k3 d10 k3, PS) to CCAAGCTACTGGCTGC (sugars k3 d10 k3, PS), the target mRNA inhibition falls from 31% to 23%.

Going from CCAATATTTGCCCCTC (sugars k3 d10 k3, PS) to CCACCAAAGACCTCGA (sugars k3 d10 k3, PS), the target mRNA inhibition falls from 40% to 27%.

Compared with CCACGCCAACACAGTT (sugars k3 d10 k3, PS), CCACTCGCTTTCCCTG (sugars k3 d10 k3, PS) is higher in target mRNA inhibition: 31% for the first, 41% for the second.

Compared with CCACTCTAAGATTGTA (sugars k3 d10 k3, PS), CCAGCCTATAAGGACA (sugars k3 d10 k3, PS) is lower in target mRNA inhibition: 40% for the first, -1% for the second.

Compared with CCAGGAGTGCCAACCA (sugars k3 d10 k3, PS), CCAGGCTGGTTATGAC (sugars k3 d10 k3, PS) is higher in target mRNA inhibition: 5% for the first, 44% for the second.

CCATTACGCAACTGAG (sugars k3 d10 k3, PS) and CCCAAAAGCCCTCTCA (sugars k3 d10 k3, PS) are the same in target mRNA inhibition: 12% for the first, 12% for the second.

Going from CCCACCAAAGACCTCG (sugars k3 d10 k3, PS) to CCCACCCTCTAAGAGA (sugars k3 d10 k3, PS), the target mRNA inhibition falls from 31% to -4%.

Compared with CCCAGTTTGTCAATAG (sugars k3 d10 k3, PS), CCCATAATTGTAGTTA (sugars k3 d10 k3, PS) is higher in target mRNA inhibition: 39% for the first, 45% for the second.

Going from CCCCAACTGCTTGCAG (sugars k3 d10 k3, PS) to CCCCAATCAAGATTTT (sugars k3 d10 k3, PS), the target mRNA inhibition falls from 13% to -21%.

Going from CCCCACGGCCCGCACG (sugars k3 d10 k3, PS) to CCCCAGTCCTTTACAG (sugars k3 d10 k3, PS), the target mRNA inhibition rises from -9% to 9%.

First: CCCCATATAAATCCCT (sugars k3 d10 k3, PS)
Second: CCCCCATTATATTAGA (sugars k3 d10 k3, PS)
The target mRNA inhibition of the first is lower: -7% for the first, 28% for the second.

Compared with CCCCCCCAAGATTGCC (sugars k3 d10 k3, PS), CCCCCCGCCTCAGTTA (sugars k3 d10 k3, PS) is higher in target mRNA inhibition: -16% for the first, -7% for the second.

Going from CCCCCGCCTCAGTTAC (sugars k3 d10 k3, PS) to CCCGCCTGAGCCCCGG (sugars k3 d10 k3, PS), the target mRNA inhibition falls from 28% to -2%.

First: CCCGGAAATCGGCCTA (sugars k3 d10 k3, PS)
Second: CCCTATATAAGGTCAA (sugars k3 d10 k3, PS)
The target mRNA inhibition of the first is lower: 0% for the first, 13% for the second.

In the case of CCCTCCCCTTTAATAA (sugars k3 d10 k3, PS), the target mRNA inhibition is reported as -17%.

In the case of ATCTGTTAACAGCTGC (sugars k3 d10 k3, PS), the target mRNA inhibition is reported as 71% and 76%.
With ATTACTCTTGATCTTG (sugars k3 d10 k3, PS) the target mRNA inhibition was 71% and 56%.
For ATTGGTATTAATTCGG (sugars k3 d10 k3, PS), the target mRNA inhibition was 70% and 75% and 92%.
For ATTTTTGAAGCATACC (sugars k3 d10 k3, PS), the target mRNA inhibition was 41% and 57%.
For CAATCCACTTGATCCC (sugars k3 d10 k3, PS), the target mRNA inhibition was 56% and 44%.
For CAGGGTTATGCTTATT (sugars k3 d10 k3, PS), the target mRNA inhibition was 75% and 66%.
CAGTAACATCTGATTC (sugars k3 d10 k3, PS) was tested, and the target mRNA inhibition was 57% and 78%.
CATTTATTTCGGCTTC (sugars k3 d10 k3, PS) was tested, and the target mRNA inhibition was 66% and 90%.
For CCCAAATTAATGCACT (sugars k3 d10 k3, PS), the target mRNA inhibition was 51% and 42%.
